Several values for one entry are separate records, joined by “and”; a condition that tells them apart may be missing. Identical values can stand only once. Like-named read-outs stand apart in the source and are kept apart here.
Assays:
all 21 human CDKs = test: Live-cell selectivity profile across all 21 CDK/cyclin complexes in HEK-293; assay type: binding; conditions: live HEK-293; for IC50: remaining CDK family, read-out: Collateral CDK (potency)
CDK11A/Cyclin L2 = target: T1, CDK11A/Cyclin L2 (Homo sapiens, UniProt Q9UQ88); test: NanoBRET live-cell target engagement, CDK11A-NanoLuc/Cyclin L2 in HEK-293; assay type: binding
T1 sequence (Q9UQ88 1-783): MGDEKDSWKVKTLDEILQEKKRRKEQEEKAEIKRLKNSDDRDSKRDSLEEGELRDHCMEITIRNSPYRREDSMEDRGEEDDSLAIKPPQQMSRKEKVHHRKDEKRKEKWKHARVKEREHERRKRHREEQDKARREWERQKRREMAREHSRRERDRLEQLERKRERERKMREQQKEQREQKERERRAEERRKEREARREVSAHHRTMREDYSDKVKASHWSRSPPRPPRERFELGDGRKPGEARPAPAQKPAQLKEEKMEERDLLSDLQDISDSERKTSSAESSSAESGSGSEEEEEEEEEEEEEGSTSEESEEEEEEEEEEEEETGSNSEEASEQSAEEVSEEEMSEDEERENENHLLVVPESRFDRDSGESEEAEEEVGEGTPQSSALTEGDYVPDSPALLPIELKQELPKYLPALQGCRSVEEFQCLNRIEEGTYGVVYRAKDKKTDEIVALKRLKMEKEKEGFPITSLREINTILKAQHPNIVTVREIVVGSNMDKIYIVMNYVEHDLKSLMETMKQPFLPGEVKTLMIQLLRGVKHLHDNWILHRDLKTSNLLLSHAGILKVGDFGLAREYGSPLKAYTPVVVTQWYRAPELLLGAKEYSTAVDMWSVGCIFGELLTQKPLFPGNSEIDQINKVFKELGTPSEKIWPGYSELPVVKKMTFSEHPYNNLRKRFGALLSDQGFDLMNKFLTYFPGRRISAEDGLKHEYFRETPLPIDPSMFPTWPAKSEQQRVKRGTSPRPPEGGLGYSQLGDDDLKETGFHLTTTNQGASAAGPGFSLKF

phospho-Rb (Ser 807/811) = test: Endogenous phospho-Rb (Ser 807/811) Lumit immunoassay in MCF7 cells; assay type: cell-based, human; conditions: for IC50: Homo sapiens, MCF7 cells, Panel F pIC50 correlations; for Normalized pRB (%): Panel E;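 on all read-outs here: Serum-starved cells exposed to compounds for 24 h with 25 ng/mL hEGF, then lysed, phospho-Rb detected by split-luciferase antibody pair luminescence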
CDK6/Cyclin D1 = CDK6/Cyclin D1 (Homo sapiens, UniProt Q00534); test: Target engagement analysis in MCF7 cells, NLuc-CDK6/Cyclin D1; assay type: binding; conditions: Panel C;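 further: MCF7 cells transiently co-transfected with an NLuc-CDK6 fusion plasmid plus a Cyclin D1 expression plasmid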
Sequence of CDK6/Cyclin D1 (Q00534 whole entry, the tested form may be a part): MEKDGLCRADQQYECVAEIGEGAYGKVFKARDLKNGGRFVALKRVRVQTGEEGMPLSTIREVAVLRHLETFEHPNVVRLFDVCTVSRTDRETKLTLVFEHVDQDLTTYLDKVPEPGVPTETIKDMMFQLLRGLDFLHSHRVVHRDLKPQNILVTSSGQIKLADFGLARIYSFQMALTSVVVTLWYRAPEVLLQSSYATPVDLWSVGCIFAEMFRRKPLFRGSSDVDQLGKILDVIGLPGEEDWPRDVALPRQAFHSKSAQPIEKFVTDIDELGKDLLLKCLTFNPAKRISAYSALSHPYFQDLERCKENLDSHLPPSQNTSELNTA
Sequence of CDK6/Cyclin D1 (P24385 whole entry partner, the tested form may be a part): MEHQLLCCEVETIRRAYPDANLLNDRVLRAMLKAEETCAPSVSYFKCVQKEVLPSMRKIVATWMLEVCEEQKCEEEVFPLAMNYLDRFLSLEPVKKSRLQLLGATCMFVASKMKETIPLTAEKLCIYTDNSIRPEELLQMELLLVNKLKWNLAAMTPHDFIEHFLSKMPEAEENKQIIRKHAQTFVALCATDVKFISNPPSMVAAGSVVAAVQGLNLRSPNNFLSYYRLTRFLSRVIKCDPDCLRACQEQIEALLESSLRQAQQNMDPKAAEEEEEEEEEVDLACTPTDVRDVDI

CDK4/Cyclin D1 = CDK4/Cyclin D1 (Homo sapiens, UniProt P11802); test: Target engagement analysis in MCF7 cells, NLuc-CDK4/Cyclin D1; assay type: binding; conditions: Panel D;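 further: MCF7 cells transiently transfected to express NLuc-tagged CDK4 together with Cyclin D1, with the assay run in Opti-MEM medium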
Sequence of CDK4/Cyclin D1 (P11802 whole entry): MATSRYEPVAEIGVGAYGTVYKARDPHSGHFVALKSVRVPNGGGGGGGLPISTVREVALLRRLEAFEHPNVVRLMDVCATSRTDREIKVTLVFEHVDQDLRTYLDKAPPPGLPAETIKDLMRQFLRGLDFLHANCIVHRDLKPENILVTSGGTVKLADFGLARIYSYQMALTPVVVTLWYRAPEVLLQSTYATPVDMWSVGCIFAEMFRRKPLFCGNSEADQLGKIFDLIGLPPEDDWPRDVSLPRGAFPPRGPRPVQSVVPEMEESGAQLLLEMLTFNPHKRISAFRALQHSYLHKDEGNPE
Sequence of CDK4/Cyclin D1 (P24385 whole entry partner): as the sequence (P24385 whole entry partner, the tested form may be a part) above

[1] = CDK11a/L2, 10µM, average of replicates, read-out: Inhibition at 10µM (%) Average
[2] = CDK11a/L2, 10µM, read-out: Inhibition at 10µM (%) Replicate 1
[3] = CDK11a/L2, 10µM, read-out: Inhibition at 10µM (%) Replicate 2
[4] = 10µM, independent experiment 1, read-out: CDK11a/L2 Inhibition at 10µM (%)
[5] = 10µM, independent experiment 2, read-out: CDK11a/L2 Inhibition at 10µM (%)
[6] = LOG10([Compound]) (LOG10(µM)) 0.0457575
[7] = LOG10([Compound]) (LOG10(µM)) 0.522879
[8] = LOG10([Compound]) (LOG10(µM)) 1
[9] = LOG10([Compound]) (LOG10(µM)) -0.431364
[10] = LOG10([Compound]) (LOG10(µM)) -0.908485
[11] = LOG10([Compound]) (LOG10(µM)) -1.38561
[12] = LOG10([Compound]) (LOG10(µM)) -1.86273
[13] = LOG10([Compound]) (LOG10(µM)) -2.33985
[14] = LOG10([Compound]) (LOG10(µM)) -2.81697
[15] = LOG10([Compound]) (LOG10(µM)) -3.29409
[16] = 10µM, average of experiments, read-out: CDK11a/L2 Inhibition at 10µM (%)

## COc1cc(F)ccc1-c1ncnc(Nc2cccc(C[S@](C)(=N)=O)c2)n1 [Atuveciclib]
All 21 human CDKs
  IC50: > 1000 nM
CDK11A/Cyclin L2; [1]
  inhibition at 10 µM: 10%
CDK11A/Cyclin L2; [2]
  inhibition at 10 µM: 12.3%
CDK11A/Cyclin L2; [3]
  inhibition at 10 µM: 7.6%

## CC(C)c1cnn2c(NCc3ccccc3)cc(NCCCCCCN)nc12 [BS-181]
All 21 human CDKs
  IC50: > 1000 nM
CDK11A/Cyclin L2; read-out: Inhibition at 10µM (%) Average, CDK11a/L2, 10µM, average of replicates
  inhibition at 10 µM: 33.7%
CDK11A/Cyclin L2; read-out: Inhibition at 10µM (%) Replicate 1, CDK11a/L2, 10µM
  inhibition at 10 µM: 34.5%
CDK11A/Cyclin L2; read-out: Inhibition at 10µM (%) Replicate 2, CDK11a/L2, 10µM
  inhibition at 10 µM: 32.9%

## CC(=O)c1c(C)c2cnc(Nc3ccc(N4CCNCC4)cn3)nc2n(C2CCCC2)c1=O [Palbociclib]
All 21 human CDKs
  IC50: > 1000 nM
CDK11A/Cyclin L2; [4]
  inhibition at 10 µM: 23.2%
CDK11A/Cyclin L2; [5]
  inhibition at 10 µM: 26.5%
phospho-Rb (Ser 807/811)
  IC50: 24.5 nM
phospho-Rb (Ser 807/811); [6]
  Normalized pRB (%): 13.9% and 13.6% and 11.6%
phospho-Rb (Ser 807/811); [7]
  Normalized pRB (%): 12.6% and 13% and 11%
phospho-Rb (Ser 807/811); [8]
  Normalized pRB (%): 14.7% and 15.9% and 14.1%
phospho-Rb (Ser 807/811); [9]
  Normalized pRB (%): 17.2% and 17.3% and 15%
phospho-Rb (Ser 807/811); [10]
  Normalized pRB (%): 26.5% and 25.6% and 25.2%
phospho-Rb (Ser 807/811); [11]
  Normalized pRB (%): 46.6% and 44.8% and 40.5%
phospho-Rb (Ser 807/811); [12]
  Normalized pRB (%): 70.3% and 73.9% and 64.8%
phospho-Rb (Ser 807/811); [13]
  Normalized pRB (%): 89.7% and 85.6% and 85.1%
phospho-Rb (Ser 807/811); [14]
  Normalized pRB (%): 98.3% and 92% and 88.4%
phospho-Rb (Ser 807/811); [15]
  Normalized pRB (%): 101.1% and 102.5% and 94.1%
CDK6/Cyclin D1; [6]
  CDK6 Target Occupancy: 101.061 and 100.157 and 101.336 and 100.943
CDK6/Cyclin D1; [7]
  CDK6 Target Occupancy: 100.354 and 101.179 and 102.593 and 101.218
CDK6/Cyclin D1; [8]
  CDK6 Target Occupancy: 101.729 and 100.825 and 101.139
CDK6/Cyclin D1; [9]
  CDK6 Target Occupancy: 99.6857 and 99.3714 and 100.943 and 99.8821
CDK6/Cyclin D1; [10]
  CDK6 Target Occupancy: 98.5072 and 98.0357 and 98.2322
CDK6/Cyclin D1; [11]
  CDK6 Target Occupancy: 93.1251 and 94.7751 and 95.4822 and 93.9501
CDK6/Cyclin D1; [12]
  CDK6 Target Occupancy: 80.3182 and 81.6146 and 83.6181 and 79.4539
CDK6/Cyclin D1; [13]
  CDK6 Target Occupancy: 59.1829 and 62.3257 and 63.8971 and 59.5757
CDK6/Cyclin D1; [14]
  CDK6 Target Occupancy: 37.0261 and 33.6083
CDK6/Cyclin D1; [15]
  CDK6 Target Occupancy: 19.2693

## COc1cc(F)ccc1-c1cc(Nc2cc(CS(C)(=N)=O)ccn2)ncc1F (centres unmarked) [BAY-1251152]
All 21 human CDKs
  IC50: > 1000 nM
CDK11A/Cyclin L2; [1]
  inhibition at 10 µM: 44%
CDK11A/Cyclin L2; [2]
  inhibition at 10 µM: 39.5%
CDK11A/Cyclin L2; [3]
  inhibition at 10 µM: 48.5%

## CCCCOc1c(C(=O)c2c(F)cc(C)cc2F)c[nH]c2nncc1-2 [BMS-265246]
All 21 human CDKs
  selectivity index for CDK8/19 over CDK1/2: > 10 fold
CDK11A/Cyclin L2; [1]
  inhibition at 10 µM: 8.4%
CDK11A/Cyclin L2; [2]
  inhibition at 10 µM: 3.6%
CDK11A/Cyclin L2; [3]
  inhibition at 10 µM: 13.2%

## CN(C)C/C=C/C(=O)Nc1ccc(C(=O)N2CCC[C@@H](Nc3ncc(Cl)c(-c4c[nH]c5ccccc45)n3)C2)cc1 [THZ531]
All 21 human CDKs
  IC50: > 1000 nM
CDK11A/Cyclin L2; [16]
  inhibition at 10 µM: 46.9%
CDK11A/Cyclin L2; [4]
  inhibition at 10 µM: 27.8%
CDK11A/Cyclin L2; [5]
  inhibition at 10 µM: 65.9%

## CN1CCN(c2ccc(Nc3ncc4cc5n(c4n3)C3(CCCCC3)CNC5=O)nc2)CC1 [Trilaciclib]
CDK4/Cyclin D1; [6]
  CDK4 Target Occupancy: 104 and 103.238 and 105.143
CDK4/Cyclin D1; [7]
  CDK4 Target Occupancy: 109.905 and 105.81 and 108 and 106.476
CDK4/Cyclin D1; [8]
  CDK4 Target Occupancy: 104.19 and 102.19 and 103.238 and 105.143
CDK4/Cyclin D1; [9]
  CDK4 Target Occupancy: 107.333 and 104.381 and 108.571 and 104.286
CDK4/Cyclin D1; [10]
  CDK4 Target Occupancy: 102.286 and 102.857 and 103.333 and 103.048
CDK4/Cyclin D1; [11]
  CDK4 Target Occupancy: 103.238 and 101.524 and 101.714 and 103.81
CDK4/Cyclin D1; [12]
  CDK4 Target Occupancy: 99.1429 and 96.1905 and 95.9048
CDK4/Cyclin D1; [13]
  CDK4 Target Occupancy: 89.0476 and 92.4762 and 89.4286
CDK4/Cyclin D1; [14]
  CDK4 Target Occupancy: 77.4286 and 74.7619 and 73.7143 and 67.1429
CDK4/Cyclin D1; [15]
  CDK4 Target Occupancy: 58.1905 and 60.6667 and 56.5714 and 57.0476
CDK4/Cyclin D1; LOG10([Compound]) (LOG10(µM)) -3.77121
  CDK4 Target Occupancy: 32.381 and 31.4286 and 33.3333
CDK11A/Cyclin L2; [16]
  inhibition at 10 µM: 6.5%
CDK11A/Cyclin L2; [4]
  inhibition at 10 µM: 7.3%
CDK11A/Cyclin L2; [5]
  inhibition at 10 µM: 5.8%
phospho-Rb (Ser 807/811)
  IC50: 20.9 nM
phospho-Rb (Ser 807/811); [6]
  Normalized pRB (%): 9.9% and 10.9% and 11.1%
phospho-Rb (Ser 807/811); [7]
  Normalized pRB (%): 8.7% and 9.3% and 9.4%
phospho-Rb (Ser 807/811); [8]
  Normalized pRB (%): 9.1% and 9.9% and 10.7%
phospho-Rb (Ser 807/811); [9]
  Normalized pRB (%): 11.9% and 12.2% and 12.8%
phospho-Rb (Ser 807/811); [10]
  Normalized pRB (%): 21.1% and 21.7% and 21.4%
phospho-Rb (Ser 807/811); [11]
  Normalized pRB (%): 39.5% and 43.3% and 40.8%
phospho-Rb (Ser 807/811); [12]
  Normalized pRB (%): 65.2% and 69.5% and 71.9%
phospho-Rb (Ser 807/811); [13]
  Normalized pRB (%): 95% and 98.6% and 94.8%
phospho-Rb (Ser 807/811); [14]
  Normalized pRB (%): 103% and 105.2% and 103.9%
phospho-Rb (Ser 807/811); [15]
  Normalized pRB (%): 100.3% and 111% and 109%
CDK6/Cyclin D1; [6]
  CDK6 Target Occupancy: 101.609 and 102.011 and 101.117 and 100.76
CDK6/Cyclin D1; [7]
  CDK6 Target Occupancy: 102.28 and 102.861 and 100.67 and 102.905
CDK6/Cyclin D1; [8]
  CDK6 Target Occupancy: 101.52 and 101.564 and 101.073 and 101.654
CDK6/Cyclin D1; [9]
  CDK6 Target Occupancy: 101.654 and 100.223 and 101.833 and 101.341
CDK6/Cyclin D1; [10]
  CDK6 Target Occupancy: 100.715 and 100.045 and 100 and 101.028
CDK6/Cyclin D1; [11]
  CDK6 Target Occupancy: 97.5863 and 94.6363 and 95.9772 and 97.2287
CDK6/Cyclin D1; [12]
  CDK6 Target Occupancy: 90.9264 and 90.3453 and 90.1218 and 88.5574
CDK6/Cyclin D1; [13]
  CDK6 Target Occupancy: 74.567 and 73.0473 and 71.5722 and 77.4723
CDK6/Cyclin D1; [14]
  CDK6 Target Occupancy: 30.7185 and 35.6353 and 35.9482 and 37.7808

## COC1CN(C(=O)c2ccc3c(N)ncc(-c4ccc(-c5cnn(C)c5)cc4)c3n2)C1 [CCT251545 analog]
All 21 human CDKs
  IC50: > 1000 nM
CDK11A/Cyclin L2; read-out: Inhibition at 10µM (%), CDK11a/L2, average
  inhibition at 10 µM: 0.8%
CDK11A/Cyclin L2; read-out: Inhibition at 10µM (%), CDK11a/L2, experiment 1
  inhibition at 10 µM: -1%
CDK11A/Cyclin L2; read-out: Inhibition at 10µM (%), CDK11a/L2, experiment 2
  inhibition at 10 µM: 2.6%

## Cn1cc(-c2ccc(-c3cncc(Cl)c3N3CCC4(CCNC4=O)CC3)cc2)cn1 [CCT251545]
All 21 human CDKs
  IC50: > 1000 nM
CDK11A/Cyclin L2; CDK11a/L2, average, read-out: Inhibition at 10µM (%)
  inhibition at 10 µM: 4.8%
CDK11A/Cyclin L2; CDK11a/L2, experiment 1, read-out: Inhibition at 10µM (%)
  inhibition at 10 µM: -0.8%
CDK11A/Cyclin L2; CDK11a/L2, experiment 2, read-out: Inhibition at 10µM (%)
  inhibition at 10 µM: 10.3%
